Like-named read-outs stand apart in the source and are kept apart here.
Experiments:
intracellular ROS = experiment: Intracellular ROS assay (DCF-DA, flow cytometry), M109 cells; assay type: cell-based, mouse; conditions: 50 μM, 10 min, positive control
Experimental: Intracellular ROS generation was assessed using the cell-permeable dye 2′,7′-dichlorofluorescein-diacetate (DCF-DA) (Sigma). DCF-DA readily diffuses into cells and becomes highly fluorescent when oxidised by O2^•−, H2O2, or OH^−.^29 Cellular fluorescence intensity is directly proportional to the level of intracellular ROS.^29 M109 cells (1×10^5 cells/well) were incubated with or without 1 μM Dp44mT for 0-48 h or 50 μM H2O2 (positive control) for 10 min at 37° C. The cells were then incubated with DCF-DA (5 μM) for 20 min at 37° C., washed twice, and detached from the culture plates. The fluorescence of oxidised DCF in cells was measured using flow cytometry.^29)
To test whether induction of h-cytc release from the mitochondrion (FIG. 15A) and the imbalance of Bcl-2/Bax expression (FIG. 15B) was due to the presence of ROS, intracellular ROS were measured by flow cytometry using the DCFH-DA probe which becomes fluorescent when oxidised by O2^•−, H2O2, or OH^−.^29 Incubation of M109 cells with Dp44mT (1 μM) increased the levels of oxidised probe as a function of time. After 2 h, a 25±10% increase in oxidised DCFH-DA fluorescence was found compared to the 0 h time point, and this increased to 486±96% after 48 h (FIG. 15C). For comparison, a 10 min incubation with the positive control, H2O2 (50 μM), increased fluorescence to 1312±46% of the 0 h time point (FIG. 15C)

[1] = test system: SK-N-MC neuroepithelioma cells; experiment: 59Fe mobilization from prelabelled SK-N-MC neuroepithelioma cells; assay type: cell-based, human; conditions: for 59Fe mobilisation as a function of concentration: 0.5-50 μM, 3 h, PCTH internal control (FIG. 5A)
Experimental: The effect of chelators on ^59Fe release from prelabelled cells was studied using standard procedures.^18 Cells were prelabelled with ^59Fe-transferrin (0.75 μM) for 3 h at 37° C. […] The overlying medium was then removed and placed into γ-counting tubes. The cells were removed from the petri dishes in 1 ml of BSS using a plastic spatula and transferred to a separate set of γ-counting tubes.
The ability of the compounds to mobilise ^59Fe from SK-N-MC neuroepithelioma cells was assessed after a 3 h labelling period with ^59Fe-Tf (0.75 μM) at 37° C. […]
DFO and 311 were used as internal standards.

[2] = test system: SK-N-MC neuroepithelioma cells; experiment: 59Fe uptake from 59Fe-transferrin by SK-N-MC neuroepithelioma cells; assay type: cell-based, human; conditions: 0.5-50 μM, 3 h; PCTH internal control (FIG. 5B)
Experimental: The cells were then placed on ice and washed four times with ice-cold Hank's balanced salt solution (BSS) to remove non-specifically bound ^59Fe-Tf. Cells were then incubated with the general protease, pronase (1 mg/ml), for 30 min at 4° C. to remove membrane-bound ^59Fe and Tf.
PCTH was used as an internal control.

[3] = test system: SK-N-MC neuroepithelioma cells; experiment: MTT cellular proliferation assay, SK-N-MC; assay type: cell-based, human
Experimental: […] […] After this incubation, 0.01 mL of MTT was added to each well and the plates incubated for 2 h at 37° C. The cells were then solubilised by adding 0.1 mL of 10% SDS-50% isobutanol in 0.01 M HCl and the plates then read at 570 nm on a scanning multiwell spectrophotometer (Titertek Multiscan; Beckman Instruments Inc, California). MTT colour formation was directly proportional to the number of viable cells.
The effect of the compounds on the proliferation of SK-N-MC neuroepithelioma cells was examined using the MTT assay (described above).
(§1) Dp2mT served as a negative control.

MRC-5 fibroblasts = experiment: MTT cellular proliferation assay, MRC-5 fibroblasts; assay type: cell-based, human
Experimental: (§2) The final concentration of the compounds was 0.39-50 μM. […] […] After this incubation, 0.01 mL of MTT was added to each well and the plates incubated for 2 h at 37° C. The cells were then solubilised by adding 0.1 mL of 10% SDS-50% isobutanol in 0.01 M HCl and the plates then read at 570 nm on a scanning multiwell spectrophotometer (Titertek Multiscan; Beckman Instruments Inc, California). MTT colour formation was directly proportional to the number of viable cells.
The MRC-5 cell type is a normal human lung fibroblast cell strain that is mortal and senesces after a number of passages in vitro. The SK-N-MC neuroepithelioma cell type is immortal.
as §1

[4] = test system: SK-N-MC neuroepithelioma cells; experiment: 3H-thymidine incorporation by SK-N-MC cells; assay type: cell-based, human; conditions: 20 h incubation then 2 h label; Mean ± SD, 4 experiments
Experimental: (§3) After a 20 h incubation of the SK-N-MC cells with a selection of analogues, ^3H-thymidine, ^3H-leucine, or ^3H-uridine (1 μCi/ml) was added for 2 h at 37° C. The cells were detached from the 96 well plate using 1 mM EDTA in Ca(II)/Mg(II)-free PBS and collected and washed using a cell harvester (Tomtec Harvester 96, Linbrook, Queensland, Australia). Radioactivity was measured on a P-scintillation counter (LKB Wallace, Turku, Finland).

[5] = test system: SK-N-MC neuroepithelioma cells; experiment: 3H-leucine incorporation by SK-N-MC cells; assay type: cell-based, human; conditions: 20 h incubation then 2 h label; Mean ± SD, 4 experiments
Experimental: as §3

[6] = test system: SK-N-MC neuroepithelioma cells; experiment: 3H-uridine incorporation by SK-N-MC cells; assay type: cell-based, human; conditions: 20 h incubation then 2 h label; Mean ± SD, 3 experiments
Experimental: as §3

GADD45 and WAF1 mRNA = experiment: Northern blot of WAF1 and GADD45 mRNA expression in SK-N-MC cells; assay type: cell-based, human; conditions: DFO 100 μM, other chelators 25 μM, 20 h at 37° C. (FIG. 7)
Experimental: FIG. 7. […] Northern blotting was performed using standard procedures (see Example 6).
Northern blot analysis was performed by isolating total RNA using the Total RNA Isolation Reagent (Advanced Biotechnologies Ltd, Surrey, United Kingdom). The membranes were hybridised with probes specific for human WAF1, GADD45, and β-actin. The WAF1 probe consisted of a 1 kb fragment from pSXV (ATCC; Cat. No. 79928). The GADD45 probe consisted of a 760 bp fragment from human GADD45 cDNA cloned into pHu145B2 (kindly supplied by Dr. Albert Fornace, National Cancer Institute, NIH, Maryland). The β-actin probe consisted of a 1.4 kb fragment from human β-actin cDNA cloned into pBluescript SK− (ATCC; Cat. No. 37997).

M109 carcinoma cells = experiment: 59Fe uptake from 59Fe-Tf by M109 cells; assay type: cell-based, mouse; conditions: 1 μM
Experimental: The ability of the compound Dp44mT to inhibit the growth of M109 lung carcinoma cells in mice was assessed. Studies were performed using M109 carcinoma cells in culture to determine the effect of Dp44mT on mobilising ^59Fe from these cells (FIG. 11C) and inhibiting ^59Fe uptake from ^59Fe-Tf (FIG. 11D). As internal controls, cells were incubated with DFO and 311. The effect of compound concentration on increasing ^59Fe mobilisation from M109 cells was examined by labelling cells with ^59Fe-Tf (0.75 μM) for 3 h at 37° C. followed by washing and reincubation with the respective compounds (0.2-25 μM) for 3 h at 37° C. (FIG. 11C). […] In contrast, 311 increased cellular ^59Fe release from 8±1% (control medium) to […] at 5 μM (FIG. 11C). For Dp44mT ^59Fe release plateaued at 2 μM, resulting in the efflux of 48±2% of ^59Fe (FIG. 11C).
At 1 μM, 311 reduced ^59Fe uptake to 40±4% of the control. […] Dp44mT had similar activity to 311 up to a concentration of 5 μM, where it reduced ^59Fe uptake to 30±1% of the control (FIG. 11D).

SK-Mel-28 melanoma cells = experiment: MTT cellular proliferation assay, SK-Mel-28; assay type: cell-based, human; conditions: Table 3, 72 h, mean ± SD
Experimental: as §2, §1
(§4) Dp2mT served as a negative control as the methyl group at the 2-position hinders Fe-chelation.

[7] = test system: MCF-7 breast cancer cells; experiment: MTT cellular proliferation assay, MCF-7; assay type: cell-based, human; conditions: values given in Example 8; read-out: IC50, anti-proliferative activity in MCF-7 cells
Experimental: […] […] […] After this incubation, 0.01 mL of MTT was added to each well and the plates incubated for 2 h at 37° C. The cells were then solubilised by adding 0.1 mL of 10% SDS-50% isobutanol in 0.01 M HCl and the plates then read at 570 nm on a scanning multiwell spectrophotometer (Titertek Multiscan; Beckman Instruments Inc, California). MTT colour formation was directly proportional to the number of viable cells.
as §1, §4

H69AR lung cancer = experiment: MTT cellular proliferation assay, H69AR; assay type: cell-based; conditions: 0-50 μM, 72 h, 1 experiment
Experimental: as §2
(§5) At the end of the incubation period, cell density was determined by the MTT assay (described above).

IMR-32 Neuroblastoma = experiment: MTT cellular proliferation assay, IMR-32; assay type: cell-based; conditions: 0-50 μM, 72 h, 1 experiment
Experimental: as §2, §5

HEP G2 Hepatoma = experiment: MTT cellular proliferation assay, HEP G2; assay type: cell-based; conditions: 0-50 μM, 72 h, 1 experiment
Experimental: as §2, §5

DU 145 prostate cancer = experiment: MTT cellular proliferation assay, DU 145; assay type: cell-based; conditions: 0-50 μM, 72 h, 2 experiments
Experimental: as §2, §5

NCI H2452 mesothelioma = experiment: MTT cellular proliferation assay, NCI H2452; assay type: cell-based; conditions: 0-50 μM, 72 h, 3 experiments
Experimental: as §2, §5

Ndrg1 = Ndrg1 expression in MCF-7 cells (Western blotting); assay type: cell-based, human; conditions: 25 μM, 24 h, MCF-7 cells (FIG. 16)
Experimental: FIG. 16. […] The expression of Ndrg1 and β-actin protein levels were assessed by Western blotting.
MCF-7 cells were incubated for 24 h with a range of metal ion chelators. […] Dp2mT was used as a negative control, […]

[8] = test system: iron regulatory proteins (IRPs); experiment: IRP-RNA-binding activity, gel-retardation assay, SK-N-MC cells; assay type: cell-based, human; conditions: DFO 100 μM, FAC 100 μg/ml, other chelators 25 μM, 20 h (FIG. 8)
Experimental: The IRP-RNA-binding activity was then assessed by the gel-retardation assay. Aliquots of cell lysate containing 2 μg of protein were incubated with 0.1 ng (approximately 1×10^5 cpm) of ^32P-labelled riboprobe for 30 min at room temperature. Using this protocol the level of RNA added was saturating. Unprotected probe was degraded by incubation with 1 U of RNAse T1 for 10 min at room temperature. Heparin (5 mg/ml) was then added for another 10 min to exclude non-specific binding. The IRE-protein complexes were analyzed on 6% non-denaturing polyacrylamide gels. In parallel experiments, samples were treated with ferricyanide (FeCN, 5 mM) and 0.5% β-mercaptoethanol (β-ME), prior to addition of the IRE probe. This procedure results in the conversion of IRP1, whether spontaneously active or not, into an active IRE-binding form.^22

[9] = Table 2, MTT assay, 90 h incubation, Mean ± SD, 4 experiments, read-out: IC50 Values of Chelators

Compound	59Fe mobilisation as a function of concentration [1]	prevention of 59Fe uptake as a function of concentration [2]	IC50 [3, 9]	3H-Thymidine Incorporation [4]	3H-Leucine Incorporation [5]	3H-Uridine Incorporation [6]	GADD45 and WAF1 mRNA expression (GADD45 and WAF1 mRNA)	IC50 (H69AR lung cancer)	IC50 (IMR-32 Neuroblastoma)	IC50 (DU 145 prostate cancer)	IC50 (NCI H2452 mesothelioma)	IRP-RNA binding activity [8]	other results
OO [H2O2]	–	–	–	–	–	–	–	–	–	–	–	–	fluorescence (intracellular ROS): 1312±46 % of the 0 h time point
O=C(NN=C(c1ccccn1)c1ccccn1)c1ccccc1 [PKBH, di-2-pyridylketone benzoyl hydrazone]	more effective than PCTH	higher efficacy than the control PCTH	3 ± 1 µM	0.03 ± 0.01 % Control	21 ± 2 % Control	5 ± 1 % Control	pronounced effect	–	–	–	–	–	IC50 (MRC-5 fibroblasts; Homo sapiens, MRC5, Example 4c, FIG. 6, read-out: IC50 values in fibroblasts): 11 µM
O=C(NN=Cc1c(O)ccc2ccccc12)c1ccncc1 [compound 311, 2-hydroxy-1-naphthylaldehyde isonicotinoyl hydrazone]	–	–	3 ± 2 µM	0.1 ± 0.1 % Control	2 ± 1 % Control	5 ± 2 % Control	up-regulation	0.97 µM	0.3 µM	1.94 µM	0.47 µM	increase	59Fe uptake (M109 carcinoma cells): 40±4 % of the control; IC50 ([3]; Table 3, 0-25 μM, 72 h, MTT, mean ± SD, read-out: IC50 SK-N-MC neuroepithelioma): 0.3 µM; IC50 (MRC-5 fibroblasts; Table 3, normal cells, 72 h, MTT, read-out: IC50 MRC-5 fibroblasts): > 25 µM; IC50 (SK-Mel-28 melanoma cells): 0.9 ± 0.5 µM; IC50 [7]: 0.6 µM; IC50 (HEP G2 Hepatoma): 1.18 µM; up-regulation of Ndrg1 (Ndrg1): markedly increased
di-2-pyridylketone 2-thiophenecarboxaldehyde hydrazone [PKTH]	more effective than PCTH	higher efficacy than the control PCTH	3 ± 1 µM	0.04 ± 0.01 % Control	19 ± 8 % Control	5 ± 1 % Control	pronounced effect	0.78 µM	0.3 µM	1.43 µM	0.73 µM	–	cellular 59Fe released ([1]; chelator 1 μM, 3 h reincubation at 37° C. (FIG. 5A)): 26%; IC50 (MRC-5 fibroblasts; Example 4c, FIG. 6, read-out: IC50 values in fibroblasts): 16 µM
ferric ammonium citrate [FAC]	–	–	–	–	–	–	–	–	–	–	–	decreased	–
